The structures appear in SMILES notation.

This is an account of results in patent US20090054304A1, “HETEROCYCLIC MODULATORS OF TGR5 FOR TREATMENT OF DISEASE” (KALYPSYS, INC., priority 2007, published 2009).

In the assay the target is T1, human TGR5 (Homo sapiens, UniProt Q8TDU6).
T1 construct: expressed in transfected cells
T1 sequence (Q8TDU6 1-330): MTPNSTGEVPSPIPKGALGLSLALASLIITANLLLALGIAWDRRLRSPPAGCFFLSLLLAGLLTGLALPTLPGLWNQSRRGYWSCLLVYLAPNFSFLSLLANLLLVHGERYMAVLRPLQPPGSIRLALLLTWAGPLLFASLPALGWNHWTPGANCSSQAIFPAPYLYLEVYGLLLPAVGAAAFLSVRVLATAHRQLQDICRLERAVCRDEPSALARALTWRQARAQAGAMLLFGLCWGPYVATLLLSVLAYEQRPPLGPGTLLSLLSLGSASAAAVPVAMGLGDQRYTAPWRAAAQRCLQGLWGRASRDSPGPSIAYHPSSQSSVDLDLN
The assay can be described thus: cAMP production assay in HEK293 cells stably expressing TGR5 (LANCE TR-FRET). The class given is cell-based. Conditions: 30 minutes stimulation, 1 mM IBMX, read-out: cAMP Production in 293-TGR5 Cells. As for the experimental part: HEK293 cells stably expressing TGR5 (HEK293-TGR5) were established by stably transfecting HEK-293 cells with an expression vector (pcDNA 3.1, Invetrogen) inserted with human TGR5 cDNA using Fugene6 (Roche, Indianapolis, Ind.) according to conventional methods. Cells were grown in DMEM (invitrogen, Carlsbad, Calif.) supplemented with 10% FBS, 1% penicillin/streptomycin under geneticin selection. The presence of TGR5 transcripts in these cells was confirmed using branched DNA (bDNA, Genospectra, Inc., Fremont Calif.) following the manufacturer's protocol and using specific probes for human TGR5. cAMP production assay was performed in high throughput 1536 well format using LANCE cAMP detection kit (Perkin Elmer Inc., Boston, Mass.) according to the manufacturer's protocol. Briefly, HEK293-TGR5 cells were harvested using non-enzymatic cell dissociation buffer (Invitrogen, Carlsbad, Calif.) and suspended in DMEM supplemented with 0.1% FBS at a density of 800,000 cells/ml. Alexa antibody was added to the cell suspension, and 4 ul of the mixture was dispensed in white opaque tissue culture treated Greiner 1536 well plates (USA Scientific, Inc., Ocala, Fla.). After an overnight incubation at 37C in an atmosphere of 10% CO2 and 95% humidity, 1 ul of 5 mM IBMX (Sigma, St. Louis, Mo.) solution in DMEM was dispensed for a final concentration of 1 mM. Cells were then stimulated with test compounds for 30 minutes, after which time 5 ul of detection reagent was added and incubated for 1-7 hrs at room temperature. TR-FRET signal was detected using the Viewlux (Perkin Elmer Inc., Boston Mass.). EC50 values were determined using Graph Pad Prizm analysis (GraphPad Software, Inc). The EC50 values for a wide range of bile acids generated from this assay were in agreement with the values published in the scientific literature. […] The symbol (+) denotes an EC50 value of ≦10 μM while the symbol (−) denotes an EC50 value of >10 μM (see Table 1).
`CC(C)n1ncc2cc(CNCc3ccc(C(F)(F)F)cc3)c(-c3ccsc3)nc21` [Example 1, 1-(1-isopropyl-6-(thiophen-3-yl)-1H-pyrazolo[3,4-b]pyridin-5-yl)-N-(4-(trifluoromethyl)benzyl)methanamine]: the EC50 was no more than 10 µM.

Turning to `CC(C)n1ncc2cc(CNCCc3ccc(Br)cc3)c(-c3ccsc3)nc21` [Example 2, 2-(4-Bromophenyl)-N-((1-isopropyl-6-(thiophen-3-yl)-1H-pyrazolo[3,4-b]pyridin-5-yl)methyl)ethanamine], the EC50 is no more than 10 µM.

On to `Cc1nn(C)c2nc(-c3ccsc3)c(CNCCc3ccc(Br)cc3)cc12` [Example 3, 2-(4-bromophenyl)-N-((1,3-dimethyl-6-(thiophen-3-yl)-1H-pyrazolo[3,4-b]pyridin-5-yl)methyl)ethanamine], for which the EC50 was no more than 10 µM.

As for `Cc1nn(C)c2nc(-c3ccsc3)c(CNCc3ccc(C(F)(F)F)cc3)cc12` [Example 4, 1-(1,3-dimethyl-6-(thiophen-3-yl)-1H-pyrazolo[3,4-b]pyridin-5-yl)-N-(4-(trifluoromethyl)benzyl)methanamine], the EC50 is greater than 10 µM.

As for `Brc1ccc(CCNCc2cc3sccc3nc2-c2ccsc2)cc1` [Example 5, 2-(4-bromophenyl)-N-((5-(thiophen-3-yl)thieno[3,2-b]pyridin-6-yl)methyl)ethanamine], the EC50 is no more than 10 µM.

With `Brc1ccc(CCNCc2cc3ccsc3nc2-c2ccsc2)cc1` [Example 6, 2-(4-bromophenyl)-N-((6-(thiophen-3-yl)thieno[2,3-b]pyridin-5-yl)methyl)ethanamine], the EC50 was no more than 10 µM.

With `FC(F)(F)c1ccc(CNCc2cc3ccsc3nc2-c2ccsc2)cc1` [Example 7, 1-(6-(thiophen-3-yl)thieno[2,3-b]pyridin-5-yl)-N-(4-(trifluoromethyl)benzyl)methanamine], the EC50 was no more than 10 µM.

On to `Brc1ccc(CCNCc2cc3ccncc3nc2-c2ccsc2)cc1` [Example 8, 2-(4-bromophenyl)-N-((2-(thiophen-3-yl)-1,7-naphthyridin-3-yl)methyl)ethanamine], for which the EC50 is no more than 10 µM.

As for `COc1cc2nc(-c3ccsc3)c(CNCCc3ccc(Br)cc3)cc2cn1` [Example 9, 2-(4-bromophenyl)-N-((7-methoxy-2-(thiophen-3-yl)-1,6-naphthyridin-3-yl)methyl)ethanamine], the EC50 is no more than 10 µM.

For the compound `O=c1cc2nc(-c3ccsc3)c(CNCCc3ccc(Br)cc3)cc2c[nH]1` [Example 10, 3-((4-bromophenethylamino)methyl)-2-(thiophen-3-yl)-1,6-naphthyridin-7(6H)-one], the EC50 was greater than 10 µM.

On to `COc1ccc2cc(CNCCc3ccc(Br)cc3)c(-c3ccsc3)nc2n1` [Example 11, 2-(4-bromophenyl)-N-((7-methoxy-2-(thiophen-3-yl)-1,8-naphthyridin-3-yl)methyl)ethanamine], for which the EC50 is no more than 10 µM.

Take `O=c1ccc2cc(CNCCc3ccc(Br)cc3)c(-c3ccsc3)nc2[nH]1` [Example 12, 6-((4-bromophenethylamino)methyl)-7-(thiophen-3-yl)-1,8-naphthyridin-2(1H)-one]: the EC50 was no more than 10 µM.
